Results as given in patent publication US6054114A, “Organometallic ligands for the localization and quantification of amyloid in vivo and in vitro” (priority 1997, dated 2000).
Read-outs that look alike come from different tables or passages of the source.

What was measured:
[1] = molecular target: T1, β1-40 amyloid fibrils (Homo sapiens, UniProt P05067); assay: Competitive displacement of labeled complexes 3 or 6 from β1-40 fibrils; type: binding; conditions: 25° C., pH 7.4, mean (±S.D.)
T1 construct: Aggregated β1-40 peptides (Bachem, Torrance, Calif); purchased Bachem, Torrance, Calif
T1 sequence (P05067 672-711 limits assumed): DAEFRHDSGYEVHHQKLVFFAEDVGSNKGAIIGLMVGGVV
Protocol: Dissociation constants, IC50 and inhibition constants were determined. Aggregated β1-40 peptides (Bachem, Torrance, Calif.; peptide concentrations were determined by amino acid analysis) were prepared by stirring supersaturated solutions of peptide (100 μM) in the standard buffer (10 mM NaH2 PO4, pH 7.4) at room temperature for at least 72 h and remained stirring while aliquots were taken. […] The solution was briefly vortexed and allowed to equilibrate at room temperature for 2 h. The solution was centrifuged for 1 min at 14,000 rpm (16,000 g) and the amount of the labeled ligand bound ([B]) to fibrils was obtained by measuring the radioactivity of the pellets or calculated using the equation [B] =[T] - [F] where [F] is the concentration of the labeled ligand in the supernatant (i.e., amount unbound or free) and [T] is the total amount of the labeled ligand added. A Scatchard plot was used to obtain [B]max (apparent maximum amount of the labeled ligand bound to fibrils) and Kd. (Freifelder, D., Physical Biochemistry: Applications to Biochemistry and Molecular Biology, 2nd ed.; W. H. Freeman & Co., N. Y. Chapter 10, p. 654 (1982)). The [B]max was based on total protein concentration. […] The IC50 value was used to calculate the inhibition constant Ki. (Cheng et al., Biochem. Pharmacol. 22:3099-3108 (1973)).
The relative affinities (Ki 's) of the free bipyridyl ligands were determined by displacement of complexes 3 or 6 (see Table 1). […] The stoichiometry of saturation, as estimated by Scatchard analysis of the binding curves, differed slightly, with 2.7 moles of 3 and 1.6 moles of 6 bound per mole of β1-40.

[2] = Peptide solubility; type: physicochemical; conditions: 10 mm nah2po4 buffer, pH 7.4
[3] = [Tc(CNtBu)4 (bpcg)]^+ (6) as labeled ligand, read-out: Inhibition constant (Ki) for β1-40 fibrils
[4] = [Tc(CNtBu)4 (bpcr)]^+ (3) as labeled ligand, read-out: Inhibition constant (Ki) for β1-40 fibrils

Ki [1, 3] | Ki [1, 4] | Molecule | Ki ([1]; Inhibition constant (Ki) for β1-40 fibrils, [Tc(CNtBu)4 (bpcg)]^+ (6) as labeled ligand) | Ki ([1]; Inhibition constant (Ki) for β1-40 fibrils, [Tc(CNtBu)4 (bpcr)]^+ (3) as labeled ligand) | solubility [2]
– | – | Nc1c(/N=N/c2ccc(-c3ccc(/N=N/c4cc(S(=O)(=O)O)c5ccccc5c4N)cc3)cc2)cc(S(=O)(=O)O)c2ccccc12 [Congo Red (1), Congo Red, reference compound] | 560 nM | 460 nM | –
– | – | β1-40: β1-40 amyloid peptide (Bachem), C-terminally truncated relative of Aβ1-42 | – | – | ca. 1 μM
420 nM | 760 nM | O=C(O)c1cc(N=Nc2ccc(-c3ccc(N=Nc4ccc(O)c(C(=O)O)c4)cn3)nc2)ccc1O [compound 5, bipyridal-Chrysamine G] | – | – | –
480 nM | 510 nM | Nc1c(N=Nc2ccc(-c3ccc(N=Nc4cc(S(=O)(=O)O)c5ccccc5c4N)cn3)nc2)cc(S(=O)(=O)O)c2ccccc12 [compound 2, Bipyridyl-Congo Red] | – | – | –
